Tested on: BT474 cells
Test: Mammosphere formation in suspension culture, BT474
Type: cell-based
Conditions: BT474, 500 nM, 10 days, versus vehicle
Description: Since SHP2 is essential for the growth and transformation of BC cells,[8],[9],[11] we determined the effect of SHP2 inhibition with CNBCA in 2D and 3D culture systems. For the effect on cell growth, BC cells (BT474 and MDA-MB468) were seeded in 2D culture and treated with a single concentration of CNBCA (500 nM), the concentration that provided a 50% inhibition of SHP2 mediated signaling in BT474 cells. Images were collected at the start and every 24 h for a total of 72 h (3 days). […] For effect on anchorage independent growth, approximately 10^6 cells were seeded in soft agar as described previously,[24] and treated with CNBCA at 500 nM concentration for 10 days with refeeding and adjustment of compound concentration. […] Finally, the effect of CNBCA on cancer stem cell properties was determined by the suspension assay, in which only cells with stem-like properties only can grow and form mammospheres.[7],[24],[36] Approximately 10^6 cells were seeded in nonadherent 6 cm plates and treated with CNBCA (500 nM) for 10 days with complementation of media and drug concentration.
To further evaluate the anti-breast cancer cell effect of CNBCA, we treated cells seeded in a suspension culture known as the mammosphere assay. In this assay, cells with cancer stem cell properties can grow and form sphere-like cellular aggregates known as mammospheres.[7],[38] […]

CCCCCCCCCOc1ccc(-c2ccc(C(=O)O)cc2)cc1CCCC(=O)O [CNBCA, 3′-(3-carboxypropyl)-4′-(nonyloxy)-[1,1′-biphenyl]-4-carboxylic acid]
mammosphere formation: fewer and smaller mammospheres

— PMC10591299, “Targeting SHP2 with an Active Site Inhibitor Blocks Signaling and Breast Cancer Cell Phenotypes” (ACS Bio & Med Chem Au, 2023)
